ChEMBL document CHEMBL5500377, “Design, synthesis and molecular modeling of novel D-ring substituted steroidal 4,5-dihydropyrazole thiazolinone derivatives as anti-inflammatory agents by inhibition of COX-2/iNOS production and down-regulation of NF-κB/MAPKs in LPS-induced RAW264.7 macrophage cells” (Eur J Med Chem, 2024)

Key:
[1] = Cytotoxicity against mouse RAW264.7 cells assessed as cell viability at 5 uM measured after 24 hrs incubation by MTT assay relative to control; type: toxicity, cell-based; details: read-out: Activity
RAW264.7 [2] = assay: Anti-inflammatory activity against mouse RAW264.7 cells assessed as inhibition of LPS-induced NO production at 5 uM measured after 24 hrs incubation by Griess assay relative to control; type: functional
RAW264.7 [3] = assay: Anti-inflammatory activity against mouse RAW264.7 cells assessed as inhibition of LPS-induced NO production measured after 24 hrs incubation by Griess assay; type: functional, cell-based; details: RAW264.7, 24 h
RAW264.7 [4] = assay: Anti-inflammatory activity against mouse RAW264.7 cells assessed as inhibition of LPS-induced TNFalpha level pretreated for 1 hr followed by induced with LPS measured after 24 hrs by ELISA; type: functional, cell-based; details: dose 2.5-20 µM, time 25.0 hrs
RAW264.7 [5] = assay: Anti-inflammatory activity against mouse RAW264.7 cells assessed as inhibition of LPS-induced COX2 level pretreated for 1 hr followed by induced with LPS measured after 24 hrs by ELISA; type: functional, cell-based; details: dose 2.5-20 µM, time 25.0 hrs

| SMILES | IC50 (RAW264.7 [3]) [µM] | viability at 24 h, 5 µM [1] [%] | inhibition at 5 µM (RAW264.7 [2]) [%] | inhibition (RAW264.7 [4]) | inhibition (RAW264.7 [5]) |
| --- | --- | --- | --- | --- | --- |
| C[C@]12CC[C@H]3[C@@H](CC=C4C[C@@H](O)CC[C@@]43C)[C@@H]1CC[C@@H]2C1=NN(C2=NC(=O)CS2)C(c2ccc(S(C)(=O)=O)cc2)C1 (stereo not given in full) |  | 74.5 | 47.3 |  |  |
| C[C@@H]1C[C@H]2[C@@H]3CCC4=CC(=O)C=C[C@]4(C)[C@@]3(F)[C@@H](O)C[C@]2(C)[C@@]1(O)C(=O)CO [DEXAMETHASONE] | 3.8 | 92 | 42.3 | Dose-Dependent Effect | Dose-Dependent Effect |
| C[C@]12CC[C@H]3[C@@H](CC=C4C[C@@H](O)CC[C@@]43C)[C@@H]1CC[C@@H]2C1=NN(C2=NC(=O)CS2)C(c2ccc(C#N)cc2)C1 (stereo not given in full) | 6.89 | 93.4 | 48.8 |  |  |
| CCc1ccc(C2CC([C@H]3CC[C@H]4[C@@H]5CC=C6C[C@@H](O)CC[C@]6(C)[C@H]5CC[C@]34C)=NN2C2=NC(=O)CS2)cc1 (stereo not given in full) |  | 82.8 | 39.9 |  |  |
| COc1ccccc1C1CC([C@H]2CC[C@H]3[C@@H]4CC=C5C[C@@H](O)CC[C@]5(C)[C@H]4CC[C@]23C)=NN1C1=NC(=O)CS1 (stereo not given in full) |  | 70 | 55.5 |  |  |
| CCOc1ccc(C2CC([C@H]3CC[C@H]4[C@@H]5CC=C6C[C@@H](O)CC[C@]6(C)[C@H]5CC[C@]34C)=NN2C2=NC(=O)CS2)cc1 (stereo not given in full) | 2.36 | 87.7 | 47.8 | Dose-Dependent Effect | Dose-Dependent Effect |

Continued, in another order:

| IC50 (RAW264.7 [3]) [µM] | SMILES | viability at 24 h, 5 µM [1] [%] | inhibition at 5 µM (RAW264.7 [2]) [%] | inhibition (RAW264.7 [4]) | inhibition (RAW264.7 [5]) |
| --- | --- | --- | --- | --- | --- |
| 12.2 | C[C@]12CC[C@H]3[C@@H](CC=C4C[C@@H](O)CC[C@@]43C)[C@@H]1CC[C@@H]2C1=NN(C2=NC(=O)CS2)C(c2ccccc2Cl)C1 (stereo not given in full) | 81.1 | 52.6 |  |  |
| 2.9 | Cc1cccc(C2CC([C@H]3CC[C@H]4[C@@H]5CC=C6C[C@@H](O)CC[C@]6(C)[C@H]5CC[C@]34C)=NN2C2=NC(=O)CS2)c1 (stereo not given in full) | 75.9 | 51.9 |  |  |
| 2.27 | C[C@]12CC[C@H]3[C@@H](CC=C4C[C@@H](O)CC[C@@]43C)[C@@H]1CC[C@@H]2C1=NN(C2=NC(=O)CS2)C(c2ccc(Br)cc2)C1 (stereo not given in full) | 85.5 | 45.4 | Dose-Dependent Effect | Dose-Dependent Effect |
